Like-named read-outs stand apart in the source and are kept apart here.

Holding throughout (assay type): cell-based, human
The subject of assay [1] is p-ERK in AGS cells (KRAS G12D mutation). The assay can be described thus: Cell p-ERK assay (HTRF, Advance ERK phospho-T202/Y204 kit). The conditions noted are these: AGS cells, 3 hours incubation with compound, HTRF, read-out: AGS p-ERK IC50. In outline: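 Phospho-ERK (T202/Y204) measured by HTRF in lysates of human gastric AGS cells carrying KRAS G12D, after 3 h compound exposure at 0.1% DMSO over a 3.16-fold series. Percent inhibition relative to DMSO control and lysis-only blank; four-parameter curve fitting gave IC50.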
(In general: TR-FRET usually uses a lanthanide donor and a delayed reading to cut background.)

For a further assay, the system named is AGS cells (KRAS G12D). The assay can be described thus: Cell proliferation inhibition assay, 3D, CellTiter-Glo 3D, AGS. The conditions noted are these: AGS 3D sphere model, 5 days incubation. In outline: (§1)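 Spheroids (800 AsPC-1 or 400 AGS cells/well; RPMI-1640 or F-12K with 10% FBS) formed overnight, then were dosed on day 2 with a 3.16-fold series at 0.1% DMSO. After 5 days, viability was read by CellTiter-Glo 3D luminescence, and IC50 came from four-parameter fits of inhibition versus DMSO control and medium blank.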
Background: ATP-based viability assays read luminescence as a measure of living cells.

The subject of assay [2] is AsPC-1 cells (KRAS G12D mutation). The experiment in a line: Cell proliferation inhibition assay, 3D, CellTiter-Glo 3D, AsPC-1. The conditions noted are these: AsPC-1 3D sphere model, 5 days incubation. In outline:
as §1

A word on the IC50: it is the point on the concentration scale where inhibition reaches its midpoint. In the case of `C#Cc1c(F)ccc2cccc(-c3nc4c5c(nc(OCC67CCCN6CC(=CF)C7)nc5c3F)N3C[C@H]5CC[C@H](N5)[C@H]3[C@H](C)O4)c12` (stereo partly drawn) [Example Z601, (5S,5aS,6S,9R)-2-(8-ethynyl-7-fluoronaphthalen-1-yl)-1-fluoro-12-((2-(fluoromethylene)tetrahydro-1H-pyrrolizin-7a (5H)-yl)methoxy)-5-methyl-5a,6,7,8,9,10-hexahydro-5H-4-oxa-3,10a, 11, 13, 14-pentaaza-6,9-methanonaphtho[1,8-ab]heptalene], the IC50 in assay [1] (Homo sapiens) was 10.5 nM; in the assay with AGS cells (KRAS G12D) (Homo sapiens, 120 h) it was 13.5 nM; in assay [2] (Homo sapiens, ASPC1, 120 h), 39 nM.

As to `C#Cc1c(F)ccc2cccc(-c3nc4c5c(nc(OCC6(CN7CCC(O)C7)CC6)nc5c3F)N3C[C@H]5CC[C@H](N5)[C@H]3[C@H](C)O4)c12` (stereo partly drawn) [Example Z721], the IC50 in assay [1] is 37.5 nM; in the assay with AGS cells (KRAS G12D), 43.6 nM; in assay [2] it was 105 nM.

Regarding “5-ethynyl-3-fluoro-4-((58,5aS,6S,9R)-1-fluoro-S-methyl-12-((1-(morpholinomethyl)cyclopropyl)methoxy)-5a,6,7,8,9,10-hexahydro-5H-4-oxa-3,10a, 11, 13,14-pentaaza-6,9-methanonaphtho[1,8-ab]heptalene-2-yl) naphthalen-2-amine [Example Z707]”, the IC50 in assay [1] came out at 0.95 nM; in the assay with AGS cells (KRAS G12D) it was 7.44 nM; in assay [2], 5.24 nM.

Consider `C#Cc1cccc2cc(N)cc(-c3nc4c5c(nc(OCC67CCCN6CC(F)(F)C7)nc5c3F)N3C[C@H]5CC[C@H](N5)[C@H]3[C@H](C)O4)c12` (stereo partly drawn) [Example Z706, 4-((5S,5aS,6S,9R)-12-((2,2-difluorotetrahydro-1H-pyrrolizin-7a (5H)-yl)methoxy)-1-fluoro-5-methyl-5a,6,7,8,9,10-hexahydro-5H-4-oxa-3,10a,11,13,14-pentaaza-6,9-methanonaphtho[1,8-ab]heptalen-2-yl)-5-ethynylnaphthalen-2-amine], for which the half-inhibitory concentration (IC50) was 6.64 nM in assay [1] (Homo sapiens); 26 nM with AGS cells (KRAS G12D) (Homo sapiens, 120 h); 37.9 nM in assay [2] (Homo sapiens, ASPC1, 120 h).

Turning to `C#Cc1cccc2cc(N)cc(-c3nc4c5c(nc(OCC67CC(=C)CN6CC(=C)C7)nc5c3F)N3C[C@H]5CC[C@H](N5)[C@H]3[C@H](C)O4)c12` [Example Z703, 4-((5S,5aS,6S,9R)-12-((2,6-dimethylenetetrahydro-1H-pyrrolizin-7a (5H)-yl)methoxy)-1-fluoro-5-methyl-5a,6,7,8,9,10-gexahydro-5H-4-oxa-3,10a,11,13,14-pentaaza-6,9-methanonaphtho[1,8-ab]heptalene-2-yl)-5-ethynylnaphthalen-2-amine], the figures for the IC50 (in assay [1]; in the assay with AGS cells (KRAS G12D); in assay [2]) were 1.05 nM, 2.64 nM and 1.78 nM, respectively.

For `C#Cc1c(F)ccc2cccc(-c3nc4c5c(nc(OCC67CC(=C)CN6CCC76CC6)nc5c3F)N3C[C@H]5CC[C@H](N5)[C@H]3[C@H](C)O4)c12` (stereo partly drawn) [Example Z602, (58,5aS,6S,9R)-2-(8-ethynyl-7-fluoronaphthalen-1-yl)-1-fluoro-5-methyl-12-((6′-methylenetetrahydrospiro[cyclopropane-1, 1′-pyrrolizin]-7a′ (5′H)-yl)methoxy)-5a,6,7,8,9,10-hexahydro-5H-4-oxa-3,10a,11,13,14-pentaaza-6,9-methanonaphtho[1,8-ab]heptalene], the IC50 worked out at 34.1 nM in assay [1], 26.5 nM with AGS cells (KRAS G12D) and 90.4 nM in assay [2].

On to `C#Cc1cccc2cncc(-c3nc4c5c(nc(OCC67CC(=C)CN6C[C@H](F)C7)nc5c3F)N3C[C@H]5CC[C@H](N5)[C@H]3[C@H](C)O4)c12` (stereo partly drawn) [Example Z684, (5S,5aS,6S,9R)-2-(5-ethynylisoquinolin-4-yl)-1-fluoro-12-(((2R)-2-fluoro-6-methylenetetrahydro-1H-pyrrolizin-7a (5H)-yl)methoxy)-5-methyl-5a,6,7,8,9,10-hexahydro-5H-4-oxa-3,10a, 11,13,14-pentaaza-6,9-methanonaphtho[1,8-ab]heptalene], for which the IC50 amounted to 57.5 nM in assay [1] (Homo sapiens); 341 nM in the assay with AGS cells (KRAS G12D) (Homo sapiens, 120 h); 326 nM in assay [2] (Homo sapiens, ASPC1, 120 h).

The values above are taken from patent US20250186456A1, “PYRIMIDINE-FUSED CYCLIC COMPOUND AND PREPARATION METHOD AND USE THEREOF” (Genfleet Therapeutics (Shanghai) Inc., priority 2021, published 2025).
